The results in this text go back to US12714682B2, “Calixarene compounds and uses thereof” (UNIVERSITÄT WIEN, priority 2019, dated 2026).

Series [1] deals with THP-1 human monocytic cell line. Nature of the series: LPS-stimulated THP-1 macrophage cytokine production (LEGENDplex). The format is cell-based. To be noted: 10 ng/ml LPS; 30 and 150 μM; FIG. 3. How it is done: A specific anti-inflammatory effect or activity of a compound is proven, if the compound can decrease the production of one of IL-1B, IL-6 and TNFα in human THP1 macrophages following LPS stimulation, as determined by a standard assay: THP-1 human monocytic cell lines are treated with 100 nM of Phorbol 12-myristate 13-acetate (PMA) for 48 h to induce mature macrophage-like state. Cells are then stimulated with 100 ng/ml of LPS in the absence and presence of 500 μM of compound. After 6 hours, supernatants of treated and untreated cells are collected, and cytokine levels determined using the Human Inflammatory panel LEGENDplex Human Pro-inflammatory Chemokine Panel (Cat. No. 740118). A positive result is considered if the compound is capable of reduce or block the production of IL-1β, IL-6, and TNFα in human THP1 macrophages after LPS stimulation.
Following cells were treated with [10 ng/ml] LPS in the absence and presence 10, 100 and 500 μM of SCA-744. Cytokine levels were determined by LEGENDplex™ Human Inflammation Panel assay from BioLegend. The bar heights represent the concentration means compared to LPS alone of 3 independent experiments carried out in triplicates.
Cells were treated with 100 nM of Phorbol 12-myristate 13-acetate (PMA) for 48 h to induce mature macrophage-like state. Cells were then stimulated with 100 ng/ml of Lipopolysaccharides (LPS) in the absence and presence of 500 μM of SCA-744. After 6 hours, supernatants of treated and untreated cells were collected and the levels of three major pro-inflammatory cytokines TNF-α, IL-6 and IL-1ß were determined using the Human Inflammatory panel of LEGENDPLEX Multi-Analyte Flow assay.

Series [2] in a line: Cytotoxicity, CellTiter-Glo cell viability. It counts as cell-based. To be noted: human, HEK 293 cells (printed as HEK 293 neuroblastoma cell lines), 72 h treatment, read-out: EC50 cytotoxicity (cell viability, ATP). As to the method: FIG. 19.: In-vitro assessment of SCA-744 (A) and SCA-754 (B) cytotoxicity. Experiments were performed using HEK 293 […] cell lines. The effect of SCA-744 and SCA-754 on cell viability was assessed using a standard ATP, CellTiter-Glo® Luminescent Cell Viability Assay following 72 hours treatment.
In vitro assessment of cytotoxicity of SCA-744 and SCA-754 in mammalian cells. 72 h following SCA-744 and SCA-754-treatment, cell viability was assessed using a standard ATP method, CellTiter-Glo® Luminescent Cell Viability Assay.
(In ATP-based viability assays light output follows the ATP content of the culture.)

In series [3] the test system is neuroblastoma cells. Nature of the series: Protection from MPP+ induced oxidative stress, CellTiter-Glo viability. It counts as cell-based. To be noted: for protection from MPP+ induced apoptosis / damage: 0.1-1000 μM, 12 h. How it is done:
Several in-vivo and in-vitro studies find that MPP+ exerts oxidative stress on cells^22. MPP+×toxicity is based on its uptake into dopaminergic neurons. MPP+ accumulate into the mitochondria, inhibiting the complex-I leading to ATP depletion, increased reactive oxygen species (ROS) production, and apoptotic cell death^23. 12 h following MPP+ treatment and SCA-744 and CAL-X incubation, cell viability was assessed using a standard ATP method, CellTiter-Glo® Luminescent Cell Viability Assay.

Series [4] relates to Osteopontin (OPN). The series is described as follows: 15N-1H HSQC NMR binding to osteopontin. To be noted: HS compared with SCA-744. How it is done: In order to verify the predicted heparan sulfate mimicking activity of SCA-744, its physical interaction was probed with a prototypical HS-binding protein Osteopontin (OPN), a component of the extracellular matrix (ECM). To this end, NMR spectroscopy was used to directly probe the interaction and map the location of the interaction site along the protein backbone. The experimental strategy was as follows: First, ^15N-labelled OPN was prepared following well-established molecular biology technology techniques. Individual residue positions are directly monitored via the so-called ^15N-^1H Heteronuclear Single-Quantum Coherence (HSQC) spectroscopy, where individual cross peaks in the two-dimensional (2D) frequency spectrum corresponds to individual residue positions (amino acids) of the protein. Ligand binding changes the chemical environment of residues located in the binding site and leads to a change in the HSQC spectrum. Since the signal assignment is available, the residue positions which are affected by ligand binding can easily be identified by comparing HSQC spectra of the apo (ligand-free) and ligand-bound state of the protein (FIG. 7A). […] It is very convenient to analyze the chemical shift changes (induced by ligand binding) as a function of residue positions (FIG. 7B,C). Residues that display the largest chemical shift changes are typically part of the binding interface. […] Therefore, it can be concluded that SCA-744 and HS share the same ligand interaction sites and therefore are in competition for binding.

By EC50 is commonly meant the concentration giving half of the maximal effect. Regarding `Cc1cc2c(O)c(c1)Cc1cc(S(=O)(=O)O)cc(c1O)Cc1cc(S(=O)(=O)O)cc(c1O)Cc1cc(S(=O)(=O)O)cc(c1O)C2` [SCA-754, Trisodium 25,26,27,28-tetrahydroxycalix(4)arene-23-methyl-5,11,17-trisulfonate], the “inhibition of LPS-induced TNF-α, IL-ß and IL-6” value in series [1] is “Dose-dependent inhibition”. In addition, in series [2], the EC50 at 72 h was 1000 µM. Moreover, the “MPP+ protection relative to SCA-744” value in series [3] (0.2 μM versus 1 μM) is given as 5 × times. Further, the “protection from MPP+ induced apoptosis / damage” value in series [3] is on record as “protects against oxidative stress from MPP+ induced damage”; in series [3] (listed as CAL-X), “protected neuroblastoma cells from MPP+ induced apoptosis”. Further, the “concentration for MPP+ protection” value in series [3] (12 h following MPP+ treatment, CellTiter-Glo) was 0.2 µM.
For “heparan sulfate [HS, reference compound]”, the “binding sites on OPN (chemical shift changes by residue)” value in series [4] was “overlapping binding sites”.
